Results from patent publication US12268901B2, “Targeting cell tropism receptors to inhibit cytomegalovirus infection” (priority 2017, dated 2025).

Key:
Format in all cases: cell-based, Human cytomegalovirus (HCMV)
[1] = tested on: HCMV infection of ARPE19 epithelial cells; assay: Peptide blocking assay, infection of ARPE19 cells (percent GFP or IE positive cells); details: short peptides 150 uM preincubated with TB40E, ARPE19, MOI=2.0, 2 dpi
Description: (A) Different amounts of peptide 1 were preincubated with TB40E-GFP virus and the mixture applied to ARPE19. Viral DNA levels were quantified by qPCR. (B) The results in (A) are presented as the relative amount of viral DNA relative to the DMSO control. (C) TB40E-GFP virus was preincubated with peptide 1 (100 μg/ml), or DMSO, followed by infection of ARPE19 cells (MOI=2.0). Cells were imaged for GFP expression at 2 dpi (D2) and 7 dpi (D7). (D) TB40E-GFP or BADrUL131-GFP virus, both expressing PC, were preincubated with peptide 1 (100 μg/ml), or DMSO prior to infection of ARPE19 cells (MOI=2.0). Cells were fixed and imaged for GFP at 2 dpi. All data represent the mean of n=3 experiments+/−SD. (E) Culture media supernatants from (C) were harvested on the indicated dpi and assayed for infectious virus by plaque assay. Values indicate the mean percent infected cells of 3 independent experiments±SD. ****p<0.0001.
FIG. 9. […] TB40E-GFP encoding the viral PC or AD169 lacking PC were preincubated with peptide 1 (100 μg/ml) and then infected on ARPE19 epithelial cells or HEL fibroblasts (MOI=2.0). Cells were fixed, permeabilized, stained for DNA, immunostained for anti-immediate early protein (IE) and imaged. […] Values indicate the mean percentage of infected cells of n=3 experiments±SD. **p<0.01; ***p<0.001.
FIG. 11. Each of the short peptides (aa sequences listed in Table 4; 150 uM), Peptide 1 (32.6 μM), or DMSO alone was preincubated with TB40E virus, followed by infection of ARPE19 cell lines (MOI=2.0). Cells were fixed and imaged for GFP and DNA at 2 dpi. Quantitation data indicating the percent GFP positive cells.
Live cell images: Phase and GFP signal images were captured on a Zeiss microscope (Zeiss AxioObserver Z1) at 10× magnification. Fixed cell images: cells were washed with PBS (Life Technologies) and fixed with 4% formalin in PBS (Sigma). DNA was stained with Hoechst 33342 dye (Life Technologies). The fixed cells were imaged using an Image Xpress Micro (IXM, Molecular Devices) at 4× magnification. Images were analyzed with MetaXpress imaging software (Molecular Devices) to determine the total cells per well and the percentage of infected cells (GFP positive) in each well. For IE immunostaining: fixed cells were permeabilized with 0.2% Triton X-100 (Sigma) in PBS. Blocking was performed with 1% BSA (Calbiochem, 2930) in PBS with 0.3M glycine (Sigma). Cells were then incubated in antibody targeting the major IE proteins (IE, EMD Millipore, MAB8131) diluted in 1% BSA in PBS. Cells were then incubated in secondary antibody (Texas Red-conjugated goat anti-mouse IgG2A, Southern Biotech, 1080-07) in PBS containing 1% BSA.
At 2 dpi with HCMV TB40E-GFP virus at the indicated MOI, ARPE19 cells were fixed with 4% formaldehyde and nuclei stained with Hoechst 33342. ARPE19 cells were imaged on an automated IXM scanning microscope. Numbers of infected cells were determined by calculating the percent GFP positive cells using MetaXpress software.
The noted synthetic peptides (100 ug/ml each or as described) were mixed with TB40E-GFP virus (1.2×10^6 PFU) and incubated at 37° C. for 2 h by rocking. The resulting samples were then subjected to the virus binding or infection assay.

[2] = tested on: HCMV Ad169 infection of HEL fibroblasts; assay: shRNA knockdown HEL fibroblasts infected with Ad169; details: MOI=1.0, 48 hpi
Description: (§1) Each shRNA was cloned into the pLKO.1-blast (Addgene) lentiviral vector followed by viral packing and multiple rounds of amplification in 293T cells. Essentially, the pLKO.1-blast constructs and packaging plasmids were co-transfected into 293T cells with the resulting supernatant harvested at 36 h. Lentiviruses were recovered by ultracentrifugation for 2 h at 28,000 rpm in a Beckman SW28 rotor and resuspensed in DMEM. The lentiviruses were used to transduce the ARPE19 or HEL cells to generate shRNA knock down cells. Populations of stable cells were selected with blasticidin (Invitrogen, 10 μg/ml) for 1 week.
(§2) The role of these proteins in fibroblast cell-type specific tropism in HCMV infection was also evaluated. The sgRNA knock out HEL-cas9 fibroblast pools were infected with HCMV Ad169 virus at MOI=3, and images were taken 48 hpi. […] HCMV infection resistance was also evaluated after knockdown using shRNA, in epithelial cells. The shOR14I1, shDMBT1 or shPDGFRA shRNA knock down ARPE19 cells were infected with TB40E-GFP virus at MOI=0.1, and images were taken 48 hpi. […] Actin is included as a loading control. Resistance to CMV infection was also evaluated in shPDGFRA, shOR14I1 or shDMBT1 knockdown HEL fibroblasts. Fibroblasts were infected with Ad169 at M01=1.0, and images were taken 48 hpi. […] Western blotting was used to confirm the depletion of PDGFRA and OR14I1 in the cells used in the experiments shown in FIG. 2H; the results are shown in FIG. 2I.

[3] = tested on: TB40E-GFP infection of ARPE19 cells; assay: shRNA knock down ARPE19 cells infected with TB40E-GFP; details: for percentage of GFP positive cells (flow cytometry): shRNA knock down ARPE19, TB40E-GFP, 48 hpi; for resistance to TB40E-GFP infection (GFP images): shRNA knock down ARPE19 cells, MOI=0.1, 48 hpi
Description: as §1
48 h after HCMV TB40E-GFP infection, ARPE19 cells were then treated with cell dissociation buffer (Gibco) and incubated at 37° C. for 10 min. Samples were then washed three times with cold buffer and fixed with cold 2% paraformadehyde in PBS. Cells were pelleted and washed and resuspended in washing buffer (0.1% tween-20 in PBS). Finally, the cells were resuspended in staining buffer (1% BSA, 0.1% sodium azide in HBSS) after pelleting again and immunofluorescent cells analyzed using a MACSQUANT analyzer 10 (Miltenyi Biotec) using blue laser 488 nm and filter 525/50 nm. Results were analyzed using FLOWJO V9.9 image analysis software.
as §2

[4] = tested on: TB40E-GFP entry into ARPE19 cells; assay: Cell-internalized virus assay in shRNA transduced ARPE19 cells; details: shRNA transduced ARPE19, TB40E-GFP MOI of 2.0, on ice 1 h then 37° C. for 2 h
Description: In parallel to the virus binding assay, a subset of plates were then shifted to 37° C. for 2 h to allow virus entry. […] After 10 cold PBS washes, internalized viral DNA levels were quantified by qPCR.
To determine whether human OR14I1 and DMBT1 are required for optimal binding of HCMV TB40E-GFP to cells, shPDGFRA, shOR14I1 and shDMBT1 transduced ARPE19 cells were infected with TB40E-GFP at an MOI of 2.0 on ice for 1 h. The cells were washed ten times with cold PBS, and viral DNA associated with the cells was quantified by qPCR. As shown in FIGS. 3A-B, OR14I1 and DMBT1 are required for optimal binding of HCMV TB40E-GFP to cells. In addition, shPDGFRA, shDMBT1 and shOR14I1 transduced ARPE19 cells were infected with TB40E-GFP at an MOI of 2.0 on ice for 1 h. The cells were then shifted to 37° C. for 2 h to allow the virus entry. […] After 10 cold PBS washes, internalized viral DNA levels were quantified by qPCR.

[5] = tested on: TB40E-GFP infection of ARPE19 cells; assay: cAMP/PKA signaling pathway modulation, TB40E-GFP infection; details: H-89 20 μM, SQ22536 150 μM, FSK 20 μM, 2 h prior to infection, MOI=4.0, 48 hpi
Description: (§3) FIGS. 7A-C. HCMV receptor engagement and cAMP/PKA signaling. ARPE19 or OR14I1 knock down cells were pretreated with phosphokinase A (PKA) inhibitor H-89 (20 μM), adenylate cyclase antagonist, SQ22536 (150 μM), or adenylate cyclase activator, forskolin (FSK; 20 μM) for 2 h prior to TB40E-GFP infection (MOI=4.0). Cells were fixed at 48 hpi and images taken.
H-89, SQ22536 and Foskolin were purchased from Sigma-Aldrich Chemicals. Wild type ARPE19 or ARPE19 cells expressing the indicated shRNAs were treated with protein kinase A (PKA) inhibitor H-89 (20 μM), adenylate cyclase antagonist, SQ22536 (150 μM), or adenylate cyclase activator, forskolin (FSK; 20 μM) for 2 h prior to infection with TB40E-GFP (MOI=2.0). After 2 h, the medium was then replaced by the standard medium that also contained the noted small molecules. Images were taken at 2 dpi.
as §3, with “HCMV” for “FIGS. 7A-C. HCMV”, “signaling was also evaluated.” for “signaling.”, “(MOI=4.0).” for “(MOI=4.0). Cells were fixed at 48 hpi and images taken.”

Molecule: LLMEFSGIWELQV (OR14I1 peptide 11-23aa)
- ability to inhibit HCMV infection (percent GFP positive cells) [1]: best activity

Molecule: GGAGTCAACTGTAGCAGAAGG (expressed or natural sequence) [shDMBT1, shRNA targeting DMBT1, in pLKO.1-blast lentiviral vector]
- resistance to Ad169 infection [2]: not
- percentage of GFP positive cells (flow cytometry) [3]: significant decrease in GFP-expressing cells
- resistance to TB40E-GFP infection (GFP images) [3]: resistance was seen
- internalized viral DNA, viral load as compared to control-infected cells [4]: about 50%

Molecule: EFLLMEFSGIWEL (OR14I1 peptide 9-21aa)
- ability to inhibit HCMV infection (percent GFP positive cells) [1]: some inhibition

Molecule: Nc1ncnc2c1ncn2C1CCCO1 (stereo not drawn) [SQ22536, 9-(Tetrahydro-2-furanyl)-9H-purin-6-amine]
- infectivity of TB40E-GFP in ARPE19 epithelial cells [5]: reduced infectivity significantly

Molecule: GCAGAAGCTCCATCTCTTATC (expressed or natural sequence) [shOR14I1, shRNA targeting OR14I1, in pLKO.1-blast lentiviral vector]
- resistance to Ad169 infection [2]: not
- percentage of GFP positive cells (flow cytometry) [3]: significant decrease in GFP-expressing cells
- resistance to TB40E-GFP infection (GFP images) [3]: resistance was seen
- internalized viral DNA, viral load as compared to control-infected cells [4]: about 50%

Molecule: FLLMEFSGIWELQ (OR14I1 peptide 10-22aa)
- ability to inhibit HCMV infection (percent GFP positive cells) [1]: best activity

Molecule: LMEFSGIWELQVL (OR14I1 peptide) [Peptide 12-24]
- ability to inhibit HCMV infection (percent GFP positive cells) [1]: best activity

Molecule: O=S(=O)(NCCNC/C=C/c1ccc(Br)cc1)c1cccc2cnccc12 [Peptide H-89]
- infectivity of TB40E-GFP in ARPE19 epithelial cells [5]: reduced infectivity significantly

Molecule: GCCTTTGTACCTCTAGGAATG (expressed or natural sequence) [shPDGFRA, shRNA targeting PDGFRA, in pLKO.1-blast lentiviral vector, reference compound]
- resistance to Ad169 infection [2]: resistant to infection
- percentage of GFP positive cells (flow cytometry) [3]: significant decrease in GFP-expressing cells
- resistance to TB40E-GFP infection (GFP images) [3]: resistance was seen
- internalized viral DNA, viral load as compared to control-infected cells [4]: about 50%
